From patent US20230116703A1, “NOVEL ERGOLINES AND METHODS OF TREATING MOOD DISORDERS” (priority 2021, published 2023) come the findings set out here.

The nature of data set [1]: Metabolic stability in rat liver microsomes (RLM). Particulars: for t1/2: RLM, 0.50 mg protein per mL; for microsomal CLint at 1 μM: both, rat, pooled rat liver microsomes, pH 7.4. In general terms: Liver microsomes are a subcellular fraction often used to study metabolism.
Data set [2] concerns the target T1, 5-HT2A receptor (Homo sapiens, UniProt P28223).
T1 construct: host or cells: HEK293
Kind of data set: biochemical. The format is binding. The conditions noted are these: 1 nM [^3H]ketanserin, HEK293 stable cell line; read-out: 5-HT2A Receptor Ki (nM) ([^3H]ketanserin). Put shortly:
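Test compounds competed with [^3H]ketanserin for receptor binding, and affinity was derived from the radioligand displacement.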

Data set [3] deals with T1, 5-HT2A receptor. Description: cell-based. The format is cell-based. The conditions noted are these: Ca^2+ flux, agonist; read-out: 5-HT2A EC50.
Data set [4] concerns the target T2, 5-HT1A receptor (Homo sapiens, UniProt P08908).
T2 construct: host or cells: CHO cells
T2 sequence (P08908 1-422): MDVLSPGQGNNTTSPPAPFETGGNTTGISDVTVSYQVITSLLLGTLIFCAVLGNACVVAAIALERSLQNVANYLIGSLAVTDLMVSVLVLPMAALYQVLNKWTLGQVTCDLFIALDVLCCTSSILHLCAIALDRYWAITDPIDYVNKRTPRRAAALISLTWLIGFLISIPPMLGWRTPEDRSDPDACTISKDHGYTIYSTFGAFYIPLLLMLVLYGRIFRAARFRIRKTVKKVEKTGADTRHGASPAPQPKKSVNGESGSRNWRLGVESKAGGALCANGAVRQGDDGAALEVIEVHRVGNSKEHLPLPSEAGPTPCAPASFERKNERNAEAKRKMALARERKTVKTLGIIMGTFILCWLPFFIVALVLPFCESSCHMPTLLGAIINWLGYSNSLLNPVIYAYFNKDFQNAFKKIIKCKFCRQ
Description: cell-based.

Data set [5] addresses T3, 5-HT2B receptor (Homo sapiens, UniProt P41595).
T3 construct: host or cells: HEK293
Kind of data set: cell-based. Particulars: Ca^2+ flux, agonist; read-out: 5-HT2B EC50.

The nature of data set [6]: Metabolic stability in mouse liver microsomes (MLM). It counts as in vitro ADME. The conditions noted are these: 0.50 mg protein per mL; for t1/2: MLM (CD-1), 1 μM; for microsomal CLint at 1 μM: mouse, pooled mouse liver microsomes, pH 7.4, MLM (CD-1). An excerpt: MLM Stability Pooled MLM from CD-1 mice (BIOIVT M00501) were used.
In data set [7] the target is T1, 5-HT2A receptor. Kind of data set: PathHunter beta-arrestin recruitment assay at 5-HT2A. It counts as cell-based. How it is done: The degree of arrestin bias varied substantially across the other compounds tested as well.
Arrestin Functional Assay at 5-HT2A. Recruitment of beta-arrestin was determined using a PathHunter assay at Eurofins DiscoverX (Fremont, Calif.) according to their standard protocols. PathHunter GPCR beta-arrestin assays take advantage of DiscoverX's proprietary Enzyme Fragment Complementation technology. The GPCR is fused in frame with a small enzyme donor fragment ProLink™ (PK) and co-expressed in cells stably expressing a fusion protein of beta-arrestin and the larger, N-terminal deletion mutant of beta-galactosidase. Activation of the GPCR (5-HT2A receptor in this case) stimulates binding of beta-arrestin to the PK-tagged GPCR and forces complementation of the two enzyme fragments, resulting in the formation of an active beta-galactosidase enzyme. This interaction leads to an increase in enzyme activity that can be measured using chemiluminescent PathHunter Detection Reagents. Briefly, PathHunter cells expressing 5-HT2A receptors were seeded in a volume of 20 μL into 384-well plates and incubated at 37° C. for the appropriate time prior to testing. […] Plates were then imaged on a microplate reader and the agonist activity was calculated using the following formula: % Activity=100%×(mean RLU of test sample−mean RLU of vehicle control)/(mean MAX control ligand−mean RLU of vehicle control), where RLU=relative light units.
(Arrestin recruitment assays detect the binding of arrestin to an activated receptor.)

A short description of data set [8]: Metabolic stability in human liver microsomes (HLM). It counts as in vitro ADME. Particulars: for t1/2: 1 μM, 0.50 mg protein per mL; for microsomal CLint at 1 μM: both sexes, human, pooled human liver microsomes, pH 7.4, 0.50 mg protein per mL. An excerpt: HLM Stability. Pooled HLM from adult male and female donors (Corning 452117) were used.
Data set [9] addresses T4, human 5-HT2C receptor (Homo sapiens, UniProt P28335).
T4 sequence (P28335 33-458): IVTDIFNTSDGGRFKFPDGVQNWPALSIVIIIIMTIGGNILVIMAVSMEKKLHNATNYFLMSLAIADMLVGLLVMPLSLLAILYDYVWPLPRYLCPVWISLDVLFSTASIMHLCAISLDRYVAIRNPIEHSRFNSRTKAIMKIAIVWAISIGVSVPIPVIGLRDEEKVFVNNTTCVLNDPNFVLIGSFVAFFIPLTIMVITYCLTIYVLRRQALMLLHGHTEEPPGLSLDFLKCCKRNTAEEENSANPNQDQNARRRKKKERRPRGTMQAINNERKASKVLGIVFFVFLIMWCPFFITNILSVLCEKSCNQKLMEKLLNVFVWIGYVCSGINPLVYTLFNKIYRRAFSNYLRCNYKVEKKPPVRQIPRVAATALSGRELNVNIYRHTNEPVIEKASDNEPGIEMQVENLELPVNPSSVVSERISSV
Description: cell-based. The conditions noted are these: Ca^2+ flux, agonist.

In data set [10] the test system is C57BL/6 mice. Description: Head twitch response (HTR) in mice. It counts as in vivo, mouse. Particulars: mouse HTR, SC. How it is done: Agonists of the 5-HT2A receptor are well known to induce this effect in rodents and the potency of this HTR is correlated with hallucinogenic potency in humans.
Animals. Adult male C57BL/6 mice, aged 6-8 weeks (body weight 20-25 g) were used in this experiment. Animals were housed under controlled temperatures and 12-hour light/dark cycles (lights on between 07:00-19:00 h), with ad libitum food and water. This study was carried out in strict accordance with the requirements of the Committee for the Purpose of Control and Supervision of Experiments on Animals (CPCSEA), India. All efforts were made to minimize suffering.
Drugs and Drug Administration. Compound 1 was synthesized as described above. It was administered subcutaneously (SC) dissolved in saline vehicle at a volume of 10 mL/kg. Five doses were tested, with n=6 animals/group. Doses were calculated on the basis of the freebase.
Procedure. Mice were administered one dose of the drug and immediately placed into a small open field for behavioral observation. Animals were observed continuously for 20 mins and the number of head twitches (HTs) were counted by an observer blind to the treatment condition.
Statistical Analysis. The data points shown are the mean±standard error of the mean (SEM). Analysis was performed using GraphPad Prism 6. Curves were fit using a non-linear gaussian distribution to calculate ED50 and Emax values.
Additional disclosed compounds were tested in the mouse head twitch response (HTR) assay according to the procedure described in Example 43. […] Lastly, compounds with much larger benzyl and phenethyl substituents on the amine nitrogen (e.g., 10 and 11) were low efficacy in this assay, consistent with their lower maximal efficacy in the arrestin functional assay (see Example 41).

Where [11] appears, read: Ca^2+ flux, agonist, read-out: 5-HT1A EC50.

Like-named read-outs stand apart in the source and are kept apart here.

T3 sequence (P41595 whole entry): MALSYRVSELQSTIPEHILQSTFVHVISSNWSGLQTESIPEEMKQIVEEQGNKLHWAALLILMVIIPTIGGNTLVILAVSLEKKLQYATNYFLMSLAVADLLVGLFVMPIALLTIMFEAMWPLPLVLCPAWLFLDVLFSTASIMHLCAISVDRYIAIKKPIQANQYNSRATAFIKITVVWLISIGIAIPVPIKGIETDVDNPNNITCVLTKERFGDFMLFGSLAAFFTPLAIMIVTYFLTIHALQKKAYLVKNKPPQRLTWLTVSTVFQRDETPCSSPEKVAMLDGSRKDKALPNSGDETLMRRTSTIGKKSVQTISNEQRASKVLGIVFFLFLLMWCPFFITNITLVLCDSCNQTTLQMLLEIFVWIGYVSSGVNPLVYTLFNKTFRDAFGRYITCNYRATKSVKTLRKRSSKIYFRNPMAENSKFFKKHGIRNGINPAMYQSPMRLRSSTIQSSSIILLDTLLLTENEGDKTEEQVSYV
T1 sequence (P28223 whole entry): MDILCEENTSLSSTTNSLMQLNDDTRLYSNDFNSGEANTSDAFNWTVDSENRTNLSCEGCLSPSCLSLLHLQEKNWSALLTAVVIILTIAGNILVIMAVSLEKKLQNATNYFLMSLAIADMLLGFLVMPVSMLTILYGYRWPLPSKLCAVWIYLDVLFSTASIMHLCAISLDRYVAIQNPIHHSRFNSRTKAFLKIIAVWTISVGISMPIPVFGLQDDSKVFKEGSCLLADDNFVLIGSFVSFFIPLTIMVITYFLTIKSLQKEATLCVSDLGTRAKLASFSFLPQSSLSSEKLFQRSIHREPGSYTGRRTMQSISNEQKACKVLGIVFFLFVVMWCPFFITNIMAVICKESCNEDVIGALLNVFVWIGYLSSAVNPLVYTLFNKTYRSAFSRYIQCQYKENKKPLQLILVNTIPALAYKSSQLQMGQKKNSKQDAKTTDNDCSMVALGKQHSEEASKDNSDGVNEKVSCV

With `CCN(CC)C(=O)[C@H]1C=C2c3cccc4[nH]cc(c34)C[C@H]2N(CCCF)C1` [Compound 2a, (6aR,9S)—N,N-diethyl-7-(3-fluoropropyl)-4,6,6a,7,8,9-hexahydroindolo[4,3-fg]quinoline-9-carboxamide], the “t1/2” value in [1] worked out at 9.673 min; in data set [6] it was 1.776 min; in data set [8], 17.018 min. The figures for the microsomal CLint at 1 μM in data set [1], in [6] and in data set [8] were 143 µL/min/mg, 780 µL/min/mg and 81.4 µL/min/mg, respectively. Moreover, the inhibition constant (Ki) in data set [2] is 115 nM. The EC50 in [3] is 169 nM; in data set [4] (setting [11]), 543 nM; in data set [5], 2170 nM; in data set [7] it was 50.6 nM; in data set [9], 256 nM.
For `CCCN1C[C@@H](C(=O)N[C@H](C)CC)C=C2c3cccc4[nH]cc(c34)C[C@H]21` [Compound 3a, (6aR,9S)—N—((R)-sec-butyl)-7-propyl-4,6,6a,7,8,9-hexahydroindolo[4,3-fg]quinoline-9-carboxamide], the “t1/2” value turned out to be 1.4 min in data set [1], 0.6 min in [6] and 2.2 min in [8]. For the same molecule, the microsomal CLint at 1 μM is 960 µL/min/mg in data set [1], 2490 µL/min/mg in [6] and 63.4 µL/min/mg in data set [8]. The Ki in data set [2] was determined as 27.6 nM. Further, the EC50 amounted to 146 nM in data set [3]; 155 nM in data set [4] (setting [11]); 1820 nM in data set [5]; 54 nM in data set [7]; 132 nM in data set [9].
For the molecule `CC[C@@H](C)NC(=O)[C@H]1C=C2c3cccc4[nH]cc(c34)C[C@H]2N(CC)C1` [Compound 5a, (6aR,9S)—N—((R)-sec-butyl)-7-ethyl-4,6,6a,7,8,9-hexahydroindolo[4,3-fg]quinoline-9-carboxamide], the “t1/2” value in data set [1] worked out at 3.1 min; in data set [6] it was 1.7 min; in data set [8] it was 5.5 min. Further, the results for the microsomal CLint at 1 μM in data set [1], in [6] and in data set [8] were 453 µL/min/mg, 834 µL/min/mg and 251 µL/min/mg, respectively. The Ki in data set [2] came to 74.5 nM. Further, the EC50 in data set [3] stood at 118 nM; in data set [4] (setting [11]), 131 nM; in data set [5] it was 2510 nM; in data set [7], 66.8 nM; in data set [9] it was 811 nM.
On to `C=CCN1C[C@@H](C(=O)N[C@H](C)CC)C=C2c3cccc4[nH]cc(c34)C[C@H]21` [Compound 8a, (6aR,9S)-7-allyl-N—((R)-sec-butyl)-4,6,6a,7,8,9-hexahydroindolo[4,3-fg]quinoline-9-carboxamide], for which the “t1/2” value in data set [1] worked out at 1.7 min; in data set [6], 0.8 min; in data set [8] it was 3.4 min. Also, the microsomal CLint at 1 μM in data set [1] is 835 µL/min/mg; in [6] it was 1660 µL/min/mg; in data set [8], 409 µL/min/mg. Besides, the Ki in [2] was greater than 1230 nM. The EC50 in [3] is 396 nM; in data set [4] (setting [11]) it was 1560 nM; in [5], 3590 nM; in data set [7] it was 1180 nM; in data set [9] it was greater than 10000 nM.
Regarding `CC[C@@H](C)NC(=O)[C@H]1C=C2c3cccc4[nH]cc(c34)C[C@H]2N(C)C1` [Int8a, (6aR,9S)—N—((R)-sec-butyl)-7-methyl-4,6,6a,7,8,9-hexahydroindolo[4,3-fg]quinoline-9-carboxamide], the results for the “t1/2” value in data set [1], in [6] and in data set [8] were 3.5 min, 1.6 min and 11.1 min, respectively. Further, the microsomal CLint at 1 μM in data set [1] is 394 µL/min/mg; in data set [6] it was 843 µL/min/mg; in data set [8], 125 µL/min/mg. For the same molecule, in [2], the Ki stood at 84.3 nM. Besides, the EC50 in data set [3] was 178 nM; in data set [4] (setting [11]) it was 163 nM; in [5], greater than 10000 nM; in data set [7] it was 19.3 nM; in data set [9] it was 160 nM.
As for `C[C@H]1C[C@H](C)N1C(=O)[C@@H]1C=C2c3cccc4[nH]cc(c34)C[C@H]2N(C)C1` [Int11, ((2S,4S)-2,4-dimethylazetidin-1-yl)((6aR, 9R)-7-methyl-4,6,6a,7,8,9-hexahydroindolo[4,3-fg]quinolin-9-yl)methanone], the “t1/2” value in data set [1] came to 54.9 min; in data set [6] it was 13.9 min; in data set [8] it was 25.7 min. The microsomal CLint at 1 μM in data set [1] was found to be 25.3 µL/min/mg; in data set [6], 100 µL/min/mg; in data set [8] it was 53.9 µL/min/mg. Moreover, in data set [2], the Ki amounted to 2.22 nM. Besides, the EC50 in data set [3] came to 37 nM; in data set [4], 8.88 nM; in [5], 96.6 nM; in data set [7] it was 1.57 nM. The Emax in data set [7] (5-HT2A beta-arrestin) was less than 60%. Also, the “agonist type in arrestin recruitment assay (in words)” value in data set [7] (5-HT2A beta-arrestin) is “partial agonists”. Further, in data set [10] (20 min, 20 min observation, curve fit, poor in some cases, read-out: ED50 (95% CI)), the ED50 was 0.0154 mg/kg. Besides, the “Most Efficacious Dose” value in data set [10] was found to be 0.1 mg/kg. In [10] (20 min observation, curve fit, poor in some cases), the “Emax (95% CI)” value is reported as 10.93 (9.181-12.76).

The microsomal CLint is a measure of how fast metabolising enzymes remove a compound, apart from limits set by blood flow. A lower microsomal CLint goes with greater metabolic stability. Usually Ki stands for a dissociation constant, usually derived from enzyme kinetics or from competition with a known ligand. A word on the EC50: it is the concentration at which the effect is half-maximal. What is called Emax is the maximal effect, on the per cent scale that the assay sets. By ED50 is commonly meant the dose at which the effect has come halfway, by size or by number of responders.
